Test results from the OPERA property sets (Mansouri et al. 2018).

| Structure (SMILES) | logP |
| --- | --- |
| CCCCOc1ccc(S(N)(=O)=O)cc1 | 2.05 |
| CC(=O)c1cccc(S(N)(=O)=O)c1 | 0.21 |
| CS(=O)(=O)Nc1ccc(S(N)(=O)=O)cc1 | -0.4 |
| COc1cccc(S(N)(=O)=O)c1 | 0.53 |
| NC(=O)c1ccc(S(N)(=O)=O)cc1 | -0.83 |
| N#Cc1cccc(S(N)(=O)=O)c1 | 0.24 |
| NS(=O)(=O)c1cccc(I)c1 | 1.58 |
| NS(=O)(=O)c1cccc(Br)c1 | 1.35 |
| NS(=O)(=O)c1ccc(-c2ccccc2)cc1 | 2.24 |
| CCCCCCOc1ccc(S(N)(=O)=O)cc1[N+](=O)[O-] | 2.99 |
| NC(=O)c1cccc(S(N)(=O)=O)c1 | -0.84 |
| CC(=O)Nc1ccc(S(N)(=O)=O)cc1 | -0.04 |
| CCCCOc1cccc(S(N)(=O)=O)c1 | 2.06 |
